# Laboratory results as given in US11058702B2 (EMEK, Inc., priority 2014, dated 2021).
# “And” between values parts separate entries of the source, which are not always exact repeats. Identical values can stand only once. Like-named read-outs stand apart in the source and are kept apart here.
# What was measured:
# AP site = settings: cited from earlier work
# human cancer cell models = assay: IUdR+MX in experimental human cancer cell models; assay type: cell-based
# Source text: BER processing typically leads to chemotherapy drug and IR resistance. Consequently, the recognition and detection of BER-deficient cancers and/or the development of chemical inhibitors of specific BER enzymes can reverse alkylating and anti-metabolite drug resistance, as well as IR resistance. Based in part on the pre-clinical results from Dr. Kinsella's lab, methoxyamine (MX), a chemical inhibitor of BER, is currently undergoing clinical testing as TRC-102 in combination with chemotherapy drugs including temozolomide. MX is a small organic amine derivative of alkoxyamine that blocks the short patch BER pathway by covalently binding the AP site formed by a specific glycosylase, rendering it refractory to the catalytic activity of AP endonuclease 1. A MX-bound AP site is repaired much more slowly (>300×) than a normal AP site, and enhances cell death.
# [1] = set-up: species or system ferret; settings: in vivo
# [2] = system: locally advanced pancreas cancer; assay: Predicted clinical use of IPdR + gemcitabine + RT; assay type: in vivo, human; settings: from 40%
# Source text: The patient will continue to take oral IPdR in addition to receiving gemcitabine therapy throughout the course of RT, and will discontinue IPdR following completion of RT.
# [3] = system: cellular DNA of HCT-116, HT-29, U251 xenografts, bone marrow, intestine, liver
# Procedure: After fixing the single-cell suspension with 70% ethanol in normal saline, the DNA is partially denatured with 2N HCl and subsequently reacted with a mouse anti-IUdR monoclonal antibody (Becton-Dickinson) followed by incubation with a fluorescein isothiocyanate-labeled goat anti-mouse secondary antibody. Finally, the nuclei are incubated with propidium iodide (PI) to label the DNA. Flow cytometric analysis is performed using two color analysis with emissions of fluorescein isothiocyanate detected with 530 nm short pass filters and PI detected with 630 nm long pass filters. In various embodiments, a minimum of 10,000 events is analyzed per sample, and the percentage of labeled cells is calculated.
# Subsequently, single cells are disrupted and the DNA is enzymatically digested into free nucleosides. DNA extraction and digestion are performed by incubation with 10% trichloroacetic acid, followed by RNA digestion in 0.25M NaOH and enzymatic digestion with DNA-ase, alkaline phosphate and phosphodiesterase in MgCl and potassium phosphate buffer. A Waters 600E solvent delivery system on a 3.9×300 mm μ Bondapak reverse-phase column (Waters Corp, Milford, Mass.) is used. The mobile phase consists of 100 mm of sodium acetate buffer (pH 5.45) plus 7% (v/v) acetonitrile. Peak identification and quantitation of IUdR and thymidine (TdR) are performed against authentic nucleoside standards. The % IUdR-DNA replacement (or % TdR replacement) is calculated according to:
# [4] = in vivo
# Source text: It has been previously reported that kinetically distinct forms of aldehyde oxidase exist in male and female rodent liver, and that these distinct forms occur as a result of differences in redox state and not in cDNA sequencing. […] A high degree of homology exists between mouse and human aldehyde oxidase.
# IPdR aldehyde oxidase = settings: intestine, bone marrow, lung and kidney; cited from earlier work
# [5] = Plasma pharmacokinetics of po IPdR in athymic mice
# Source text: These nucleoside analogs are extracted from the plasma by the addition of 5-chloro-2′-deoxyuridine (internal standard) and acetonitrile. The samples are redissolved in deionized water for HPLC analysis using a Spectra-Physics P2000 pump and UV2000 detection (Spectra-Physics Analytical, Fremont, Calif.) on a 3.9×300 mm μ Bondapak C18 reverse phase column (Waters Associates, Milford, Mass.). […] Plasma samples are processed by solvent deproteinization. […] All solvents should be high-pressure liquid chromatography (HPLC) grade.
# high-grade gliomas = assay: Predicted clinical use of IPdR + RT (+TMZ); assay type: in vivo, human
# Source text: Dysregulation of other DNA repair pathways, including both MMR and BER, are reported to contribute to the aggressive biology and poor prognosis of high-grade gliomas. In a recent comprehensive analysis of the messenger ribonucleic acid (mRNA) expression levels in 157 DNA repair genes in two large, publically available, gene expression data sets from 699 GBM tumors, the expression levels of a key BER glycolylase (APE1) and a key MMR protein (PMS2) were reported to be independent prognostic biomarkers of survival following treatment with RT alone or TMZ alone. Based on this novel DNA repair prognostic index for GBM and other high-grade gliomas, future clinical studies of the use of RT+IPdR would stratify for specific molecular subsets of high-grade gliomas with intact MGMT (i.e. unmethylated promoter) and deficient MMR. […] In both clinical scenarios, the enhanced IPdR-mediated radiosensitization would be predicted to improve the duration of survival by 50%, as reflected in the early trials of ci IUdR+RT (Table 1).
# The patient will initially undergo maximal surgical resection, with a goal of <5% residual disease (the infiltrative nature of high-grade gliomas dictates this goal). […] The patient will continue TMZ and IPdR throughout the course of RT.
# [6] = system: locally advanced rectal cancer; assay: Predicted clinical use of po IPdR + RT + capecitabine; assay type: in vivo, human; settings: po IPdR added to RT+capecitabine
# Source text: The biochemical and cellular interactions of RT+FP are felt to result from inhibition of the enzyme, thymidylate synthetase (TS) by the FP monophosphate metabolite, FdUMP, leading to decreased (or unbalanced) nucleotide pools necessary for DNA synthesis and decreased DNA repair following RT damage. […] The clinical and PK data from this ongoing clinical trial will be used in the design of a future Phase II clinical trial of IPdR+RT+twice daily po capecitabine as pre-operative therapy in patients with locally advanced rectal cancer.
# The patient will continue to take oral IPdR in addition to capecitabine therapy throughout the course of RT, and will discontinue IPdR and capecitabine following completion of RT.
# in vivo = settings: daily po bolus (gastric gavage) for 6 days
# Procedure: No further dose escalations were used because of the increased risk of pulmonary aspiration with larger drug volumes (≥2000 mg/kg/d).
# [7] = system: HT-29, HCT 116, U251 and U87 xenografts; assay: Tumor regrowth assay of response to RT; assay type: in vivo, athymic mice
# [8] = cited from earlier work
# chordoma = assay: Predicted clinical use of IPdR + proton therapy; assay type: in vivo, human; settings: IPdR added to PT
# Source text: The patient will continue to take oral IPdR throughout the course of PT, and will discontinue IPdR following completion of PT.
# PT as a modality of RT is gaining popularity as it allows delivery of higher doses of IR with equivalent or less toxicity (i.e. the TI of PT is higher than that of conventional RT). The use of PT, however, is limited by availability (limited number of PT centers), feasibility (logistics involved in the administration of PT formidable), and the cost (cost of PT is, on average, 3-5 times the cost of conventional RT).
# [9] = system: herpes simplex virus-infected HeLa cells; settings: cited from earlier work
# [10] = Plasma PK of once daily po IPdR x 28 days; assay type: in vivo, Fischer-344 rats
# Source text: Cancer research. 1994; 54(10):2695-700. […] Plasma samples are processed by solvent deproteinization.
# This study was requested by the FDA as part of the pre-clinical testing of po IPdR prior to IND submission. […] Thus, the PK profile for po IPdR appears quite similar in mice and rats.
# [11] = human colorectal and glioblastoma xenografts
# [12] = IPdR+TMZ+RT, MGMT promoter methylated GBM
smiles,measurement,setting,value
"CON [MX, methoxyamine]",slower repair of MX-bound AP site than normal AP site,AP site,> 300 ×
same,effect of IUdR+MX on % IUdR-DNA incorporation and radiosensitization,human cancer cell models,enhances
O=c1ncc(I)cn1[C@H]1C[C@H](O)[C@@H](CO)O1 [IPdR],"blood cell counts, liver function tests, kidney function tests, urinalysis",[1],No significant abnormalities
same,gross findings at complete necropsy,[1],no anatomic lesions
same,"hematologic, biochemical, or histopathologic changes",[1],"no significant hematologic,"
same,histology of CNS tissues,[1],No histological changes
same,kidney and uterus weights,[1],decreased
same,liver weights,[1],increased
same,microscopic changes in liver,[1],minimal to moderate cytoplasmic vacuolation of hepatocytes
same,weight loss at highest dose,[1],species. Noted mild weight
same,expected percentage of patients achieving R0-resection,[2],> 60%
same,radiosensitization compared to continuous infusion IUdR,[3]; % IUdR-DNA incorporation as surrogate,more effective radiosensitizer
same,increase in % IUdR-DNA cellular incorporation in tumor vs MTD of po IUdR,"[3]; IPdR 1 g/kg/d for 6 days, HCT-116",2-3 fold
same,"IUdR-DNA incorporation in tumors, po IPdR vs ci IUdR",[3]; [11],Increased IUdR-DNA
same,"increase in % IUdR-DNA tumor cell incorporation, po IPdR compared to ci IUdR","[3]; human tumor xenografts, MTD schedules of IUdR",2-3 fold and 2 fold
same,"IUdR-DNA incorporation in normal tissues, po IPdR vs ci IUdR","[3]; mouse, in vivo, po",decreased in normal
same,"decrease in % IUdR-DNA incorporation in bone marrow and intestine, po IPdR compared to ci IUdR","[3]; mouse, in vivo, po",2 fold and 2-3 fold
same,"less % IUdR-DNA incorporation in bone marrow and intestine, po IPdR vs po IUdR","[3]; mouse, in vivo, po",≥ 2 fold
same,"% IUdR-DNA incorporation, liver tumor metastases vs sc tumor","[3]; po IPdR, HCT-116",no differential effect
same,normal tissue systemic toxicities compared to continuous infusion IUdR,"[3]; weight loss, myelosuppression",less normal tissue systemic toxicities
same,clearance from plasma,[4],rapidly cleared from plasma in a bi-exponential fashion
same,activity of IPdR aldehyde oxidase in other normal tissues vs liver,IPdR aldehyde oxidase,10 fold less
same,peak plasma levels of IUdR,[5]; bolus 250 mg/kg IPdR po,up to 45 μM
same,time to peak plasma levels of IUdR,[5]; bolus 250 mg/kg IPdR po,≤ 15 min
same,plasma levels of IPdR at 45 and 90 min,[5]; po 1500 mg/kg,remain elevated
same,time to peak plasma level of IPdR,[5]; po IPdR bolus,10 to 20 min
same,time to peak plasma level of IUdR,[5]; po IPdR bolus,10 to 20 min
same,time to peak plasma level of metabolite IP,[5]; po bolus of IPdR,45 to 90 min
same,time to peak plasma level of metabolite IU,[5]; po bolus of IPdR,45 to 90 min
same,predicted prolongation of survival,high-grade gliomas; [12],up to 70%
same,predicted survival,high-grade gliomas; [12],24 months
same,predicted improvement of duration of survival,high-grade gliomas; RT+IPdR or RT+IPdR+TMZ,50%
same,further improvement in DFS,[6],10-15%
same,postulated pCR rate,[6]; from 10-15%,30-35%
same,tolerated dose,in vivo,up to 1 g/kg/d
same,enhancement of response to RT with po IPdR,[7]; [11],IUdR. 1.3-1.5 fold
same,calculated SER for po IPdR,"[7]; mouse, in vivo, po",1.3-1.5
same,plasma concentrations of IUdR vs oral dose of IPdR,[8]; 150 mg to 2400 mg,generally increased
same,peak IUdR plasma levels,"[8]; IPdR 2400 mg po, 6 patients",4.0 ± 1.02 µmol/L
same,IUdR half-life,[8]; IPdR 2400 mg po,1.5 h
same,time IUdR plasma levels remained above 1 umol/L,[8]; IPdR 2400 mg po,3 to 4 h
same,time to peak IUdR plasma levels,[8]; IPdR 2400 mg po,1.67 ± 1.21 h
same,toxicities,[8]; po IPdR 150 mg-2400 mg,No toxicities.
same,IUdR levels decreasing over 8 hours to,[8]; po IPdR dose of 2400 mg,1 µM
same,duration of peak plasma levels of IUdR,[8]; po IPdR dose of 2400 mg,4 h
same,peak plasma levels of IUdR,[8]; po IPdR dose of 2400 mg,> 4 µM
same,transient plasma levels of IUdR,[8]; po IPdR,up to 4 μMol/L
same,adverse events (NCI Common Toxicity Criteria version 4.0),"[8]; single po dose 150-2400 mg, 10 patients",no drug-related adverse events
same,predicted increase of the TI of the IR,chordoma,up to 1.5 ×
same,LD50,"IPdR, one dose/day×14-28 days",never reached
same,TI of IPdR in animals,LD50/ED50,∞
same,deaths,"very high doses, one dose/day×14-28 days",no deaths were seen
same,toxicity to uninfected cells or mice,[9],without toxicity
same,antiviral activity,[9]; in vitro and in vivo following po administration,significant activity
same,Cmax values for IPdR with increasing dose,[10]; 0.2 or 1.0 gm/kg/day,less than dose proportional
same,IUdR AUC values vs dose,[10]; after po IPdR,proportional with increasing dose
same,time of peak IUdR concentrations,[10]; after po IPdR dosing,≤ 15 min
same,mean half-life for IUdR,"[10]; females, after po IPdR",8 h
same,mean elimination half-life for IPdR,[10]; highest dose,~5 h
same,mean half-life for IUdR,"[10]; males, after po IPdR",6 h
same,absorption of po IPdR,"[10]; rat, in vivo, po","not dependent on sex, dose, or single (Day 1) versus multiple daily dosings (Day 28)"
same,time of maximal concentrations of IPdR,[10]; single doses of 1.0 gm/kg/day,90 min
same,AUC values for IPdR after 28 days,[10]; vs Day 1,less than those observed after Day 1
